In US5574033A, “Heterocyclic compound and cardiotonic agent containing the same as effective component” (Zenyaku Kogyo Kabushiki Kaisha, priority 1991, dated 1996):

Key:
[1] = system: papillary muscles of a right ventricle; assay: Pharmacological Test 1: contraction of isolated right ventricular papillary muscles upon electric stimulation (inotropic effect); set-up: species or system male Hartley guinea pig; settings: 3×10^-5 M; percentage of increment of contractile force, isoprotelenol (1×10^-8 M) = 100%; 1 Hz stimulation, 30° C.
Description: (§1) Nos. of the compounds in the pharmacological tests 1 and 2 correspond to those in Examples referred to hereinafter.
(§2) A heart was removed from a male Hartley guinea pig (having a body weight of about 400 g or so) and a right atrium and papillary muscles of a right ventricle were separated from the removed heart. These preparations were suspended in 15 ml of Magnus' bath under load of 0.5 g (papillary muscles) or 1.0 g (right atria). Contraction of papillary muscles upon electric stimulation (1 Hz, 5 msec, 1.5×threshold voltage) and spontaneous contraction of the right atria were recorded through a transducer (manufactured by Orientec, T7-8-240) by a polygraph system (manufactured by NIHONKOHDEN, RMP-6008 and WT-685G).
(§3) Krebs-Henseleit solution was used as nutritive liquid bubbled with mixed gases of 95% O2 with 5% CO2 at 30° C. The value of inotropic effect is a percentage of increment of contractile force by samples when that by isoprotelenol (1×10^-8 M) is considered to be 100%. The value of chronotropic effect is a percentage of atrial rate after the injection of samples when the atrial rate before the injection is considered to be 100%.

[2] = system: right atria; assay: Pharmacological Test 1: spontaneous contraction of isolated right atria (chronotropic effect); set-up: species or system male Hartley guinea pig; settings: Cavia porcellus; 3×10^-5 M; percentage of atrial rate after injection, rate before injection = 100%; 30° C.
Description: as §1, §2, §3

| SMILES | Inotropic Effect [1] | activity at 30 µM [2] |
| --- | --- | --- |
| O=C1CSC(c2ccncc2)=NN1 [a, 2-(4-Pyridyl)-4H,6H-1,3,4-thiadiazin-5-one, reference compound] | 22.2% | 159% |
| COc1ccc(OC)c(C(O)CN2CC=C(C3=NNC(=O)CS3)CC2)c1 (centres unmarked) [Compound 8, 2-[1-[2-Hydroxy-2-(2,5-dimethoxyphenyl)ethyl]-1,2,5,6-tetrahydropyrid-4-yl]-4H,6H-1,3,4-thiadiazin-5-one] | 50.4% | 89% |
| O=C1NN=C(C2=CCN(CC(O)c3ccc(Cl)cc3)CC2)CS1 (centres unmarked) [Compound 42, 5-[1-[2-(4-Chlorophenyl)-2-hydroxyethyl]-1,2,5,6-tetrahydropyrid-4-yl]-3H,6H-1,3,4-thiadiazin-2-one] | 71.0% | 85.9% |
| O=C1CSC(C2=CCN(CC(O)c3ccc([N+](=O)[O-])cc3)CC2)=NN1 (centres unmarked) [Compound 31, 2-[1-[2-Hydroxy-2-(4-nitrophenyl)ethyl]-1,2,5,6-tetrahydropyrid-4-yl]-4H,6H-1,3,4-thiadiazin-5-one] | 74.7% | 90.4% |
| O=C1CSC(C2=CCN(CC(O)c3ccc(Cl)c(Cl)c3)CC2)=NN1 (centres unmarked) [Compound 18, 2-[1-[2-(3,4-Dichlorophenyl)-2-hydroxyethyl]-1,2,5,6-tetrahydropyrid-4-yl]-4H,6H-1,3,4-thiadiazin-5-one] | 52.2% | 97.8% |
| O=C1CCC(C2=CCN(CC(O)c3ccccc3C(F)(F)F)CC2)=NN1 (centres unmarked) [Compound 54, 4,5-Dihydro-6-[1-[2-hydroxy-2-[2-(trifluoromethyl)phenyl]ethyl]-1,2,5,6-tetrahydropyrid-4-yl]pyridazin-3 (2H) -one] | 25.2% | 97.3% |
| Cc1ccc(C(O)CN2CC=C(C3=NNC(=O)CS3)CC2)c(C)c1 (centres unmarked) [Compound 25, 2-[1-[2-Hydroxy-2-(2,4-dimethylphenyl)ethyl]-1,2,5,6-tetrahydropyrid-4-yl]-4H,6H-1,3,4-thiadiazin-5-one] | 58.5% | 65.2% |
| O=C1CSC(C2=CCN(CC(O)c3ccc(Cl)cc3)CC2)=NN1 (centres unmarked) [Compound 13, 2-[1-[2-(4-Chlorophenyl)-2-hydroxyethyl]-1,2,5,6-tetrahydropyrid-4-yl]-4H,6H-1,3,4-thiadiazin-5-one] | 72.2% | 93.4% |
| O=C1NN=C(C2=CCN(CC(O)c3ccc([N+](=O)[O-])cc3)CC2)CS1 (centres unmarked) [Compound 45, 5-[1-[2-Hydroxy-2-(4-nitrophenyl)ethyl]-1,2,5,6-tetrahydropyrid-4-yl]-3H,6H-1,3,4-thiadiazin-2-one] | 99.5% | 79.1% |
| CC1SC(C2=CCN(CC(O)c3ccc(Cl)cc3)CC2)=NNC1=O (centres unmarked) [Compound 14, 2-[1-[2-(4-Chlorophenyl)-2-hydroxyethyl]-1,2,5,6-tetrahydropyrid-4-yl]-6-methyl-4H,6H-1,3,4-thiadiazin-5-one] | 26.3% | 73.5% |
| O=C1NN=C(C2=CCN(CC(O)c3ccccc3)CC2)CS1 (centres unmarked) [Compound 40, 5-[1-(2-Hydroxy-2-phenylethyl)-1,2,5,6-tetrahydropyrid-4-yl]-3H,6H-1,3,4-thiadiazin-2-one] | 35.3% | 98.1% |
| N#Cc1ccc(C(O)CN2CC=C(C3=NNC(=O)SC3)CC2)cc1 (centres unmarked) [Compound 47, 5-[1-[2-(4-Cyanophenyl)-2-hydroxyethyl]-1,2,5,6-tetrahydropyrid-4-yl]-3H,6H-1,3,4-thiadiazin-2-one] | 81.4% | 78.2% |
| COc1ccc(C(O)CN2CC=C(C3=NNC(=O)SC3)CC2)cc1 (centres unmarked) [Compound 39, 5-[1-[2-Hydroxy-2-(4-methoxyphenyl)ethyl]-1,2,5,6tetra-hydropyrid-4-yl]-3H,6H-1,3,4-thiadiazin-2-one] | 28.3% | 75.7% |
